Experimental data from PubChem BioAssay (NCI).
Several values for one entry are separate records, joined by “and”; a condition that tells them apart may be missing. Identical values can stand only once.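 Assay format: 96-well plates, 48-hour exposure. At the GI50, growth is halved. TGI: total growth inhibition.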

Key:
Assay in all cases: inhibition of tumour cell growth, NCI panel, 48 h
[1] = test system: BT-549 breast
[2] = test system: CAKI-1 renal
[3] = test system: HCC-2998 colon
[4] = test system: HOP-62 NSCLC
[5] = test system: HOP-92 NSCLC
[6] = test system: HT29 colon
[7] = test system: KM12 colon
[8] = test system: MDA-MB-435
[9] = test system: NCI-H23 lung
[10] = test system: NCI-H460 lung
[11] = test system: NCI/ADR-RES ovarian
[12] = test system: OVCAR-5 ovarian
[13] = test system: OVCAR-8 ovarian
[14] = test system: SF-268 CNS
[15] = test system: SF-539 CNS
[16] = test system: SK-OV-3 ovarian
[17] = test system: SNB-19 CNS
[18] = test system: HS 578T breast

CC(=O)Oc1cc2c(n(C)c1=O)CCC2
TGI [1]: > 100 µM | TGI [2]: > 100 µM | TGI [3]: > 100 µM | TGI [4]: > 100 µM | TGI [5]: > 100 µM | TGI [6]: > 100 µM | TGI [7]: > 100 µM | TGI [8]: > 100 µM | TGI [9]: > 100 µM | TGI [10]: > 100 µM | TGI [11]: > 100 µM | TGI [12]: > 100 µM | TGI [13]: > 100 µM | TGI [14]: > 100 µM | TGI [15]: > 100 µM | TGI [16]: > 100 µM | TGI [17]: > 100 µM

O=Cc1ccc2[nH]c(=O)oc2c1
TGI [1]: > 100 µM | TGI [2]: > 100 µM | TGI [4]: > 100 µM | TGI [18]: > 100 µM | TGI [6]: > 100 µM | TGI [7]: > 100 µM | TGI [8]: > 100 µM | TGI [9]: > 100 µM | TGI [10]: > 100 µM | TGI [11]: > 100 µM | TGI [12]: > 100 µM | TGI [13]: > 100 µM | TGI [14]: > 100 µM | TGI [15]: > 100 µM | TGI [16]: > 100 µM | TGI [17]: > 100 µM

C1COCCOP2(N3CC3)=NP(N3CC3)(=NP(N3CC3)(N3CC3)=N2)OCCOCCO1 (stereo not drawn)
TGI [1]: > 100 µM | TGI [2]: > 100 µM | TGI [4]: > 100 µM | TGI [18]: > 100 µM | TGI [6]: > 100 µM | TGI [7]: > 100 µM | TGI [8]: > 100 µM | TGI [9]: > 100 µM | TGI [11]: > 100 µM | TGI [12]: > 100 µM | TGI [13]: > 100 µM | TGI [14]: > 100 µM | TGI [15]: > 100 µM | TGI [16]: > 100 µM | TGI [17]: > 100 µM

CC(=O)Oc1ccc2c3c1[C@@H]1O[C@@H]1c1cccc(c1-3)[C@@H]1O[C@H]21
TGI [1]: 3.98 µM | TGI [2]: 3.07 µM | TGI [4]: 3.96 µM | TGI [18]: 5.98 µM | TGI [7]: 4.47 µM | GI50 [8]: 1.79 µM | TGI [8]: 3.38 µM | GI50 [11]: 1.4 µM | TGI [11]: 3.76 µM | TGI [12]: 3.42 µM | TGI [13]: 2.85 µM | TGI [14]: 5.04 µM | TGI [16]: 9.71 µM | TGI [17]: 23.1 µM

CC(C)(C)c1cc2c(O)c(c1)COCc1cc(C(C)(C)C)cc(c1O)COCc1cc(C(C)(C)C)cc(c1O)COC2
TGI [1]: > 100 µM | TGI [3]: > 100 µM | TGI [4]: > 100 µM | TGI [5]: > 100 µM | TGI [7]: > 100 µM | TGI [8]: > 100 µM | TGI [9]: > 100 µM | TGI [10]: > 100 µM | TGI [11]: > 100 µM | TGI [12]: > 100 µM | TGI [13]: > 100 µM | TGI [16]: > 100 µM | TGI [17]: > 100 µM

Cc1ccc(C(=O)C(C)N)cc1C (stereo not drawn)
TGI [2]: > 100 µM | TGI [3]: > 100 µM | TGI [4]: > 100 µM | TGI [6]: > 100 µM | TGI [7]: > 100 µM | TGI [9]: > 100 µM | TGI [10]: > 100 µM | TGI [13]: > 100 µM | TGI [14]: > 100 µM | TGI [15]: > 100 µM | TGI [16]: > 100 µM | TGI [17]: > 100 µM

Cc1ccc(S(=O)(=O)N/N=C2\CC3C4CCC3C2C4)cc1 (stereo not drawn)
TGI [2]: > 100 µM | TGI [3]: > 100 µM | TGI [4]: > 100 µM | TGI [5]: > 100 µM | TGI [18]: > 100 µM | TGI [6]: > 100 µM | TGI [7]: > 100 µM | TGI [8]: > 100 µM | TGI [9]: > 100 µM | TGI [10]: > 100 µM | TGI [11]: > 100 µM | TGI [12]: > 100 µM | TGI [13]: > 100 µM | TGI [14]: > 100 µM | TGI [15]: > 100 µM | TGI [16]: > 100 µM | TGI [17]: > 100 µM

CCOC(=O)C(C(=O)OCC)C(NC(=O)Nc1cc(C(F)(F)F)ccc1OC)(C(F)(F)F)C(F)(F)F
TGI [2]: 91.5 µM | TGI [3]: 85 µM | TGI [4]: 56.6 µM | TGI [5]: 55.8 µM | TGI [18]: > 100 µM | TGI [6]: 92.1 µM | TGI [7]: 66.1 µM | TGI [8]: 43.8 µM | TGI [9]: 85.6 µM | TGI [10]: > 100 µM | TGI [11]: 75.9 µM | TGI [12]: > 100 µM | TGI [13]: > 100 µM | TGI [14]: > 100 µM | TGI [15]: 36.2 µM | TGI [16]: > 100 µM | TGI [17]: > 100 µM

COC1=CC(=O)C2C(C1=O)[C@@H]1c3ccccc3OC[C@H]21 (stereo partly drawn)
TGI [2]: > 100 µM | TGI [3]: > 100 µM | TGI [4]: > 100 µM | TGI [5]: > 100 µM | TGI [6]: > 100 µM | TGI [7]: > 100 µM | TGI [9]: > 100 µM | TGI [10]: > 100 µM | TGI [12]: > 100 µM | TGI [13]: > 100 µM | TGI [14]: > 100 µM | TGI [15]: > 100 µM | TGI [16]: > 100 µM | TGI [17]: > 100 µM

C#CC1(O)CC(c2ccccc2)N(C)C(c2ccccc2)C1 (stereo not drawn)
TGI [2]: > 100 µM | TGI [3]: > 100 µM | TGI [4]: > 100 µM | TGI [5]: > 100 µM | TGI [6]: > 100 µM | TGI [7]: > 100 µM | TGI [9]: > 100 µM | TGI [10]: > 100 µM | TGI [12]: > 100 µM | TGI [13]: > 100 µM | TGI [14]: > 100 µM | TGI [15]: > 100 µM | TGI [16]: > 100 µM | TGI [17]: > 100 µM

CCCC(=O)Oc1cc(OC(=O)CCC)c2c(C)cc(=O)oc2c1
TGI [4]: > 100 µM | TGI [5]: > 100 µM | TGI [18]: > 100 µM | TGI [6]: > 100 µM | TGI [7]: > 100 µM | TGI [8]: > 100 µM | TGI [9]: > 100 µM | TGI [11]: > 100 µM | TGI [12]: > 100 µM | TGI [13]: > 100 µM | TGI [14]: > 100 µM | TGI [15]: > 100 µM | TGI [16]: > 100 µM | TGI [17]: > 100 µM

OCC(O)C(O)C(C=NNc1ncnc2ccc(Br)cc12)=NNc1ncnc2ccc(Br)cc12 (stereo not drawn)
TGI [4]: 25 µM and > 100 µM | TGI [5]: 10.4 µM and > 100 µM | TGI [18]: > 100 µM | TGI [6]: > 100 µM | TGI [7]: 69 µM and > 100 µM | TGI [8]: 76.9 µM and > 100 µM | TGI [12]: 88 µM and > 100 µM | TGI [13]: 46.9 µM and > 100 µM | TGI [14]: 25 µM and > 100 µM | TGI [15]: 33.7 µM and > 100 µM | TGI [16]: > 100 µM | TGI [17]: > 100 µM

COc1ccc(NC(C)=O)cc1N1C(=O)/C(=C\c2cccc(Oc3ccccc3)c2)SC1c1ccccc1 (stereo not drawn)
TGI [1]: > 100 µM | TGI [2]: > 100 µM | TGI [3]: > 100 µM | TGI [4]: > 100 µM | TGI [5]: 79.6 µM | TGI [6]: 45.5 µM | TGI [7]: > 100 µM | TGI [8]: > 100 µM | TGI [9]: > 100 µM | TGI [10]: > 100 µM | TGI [11]: 54.8 µM | TGI [12]: > 100 µM | TGI [13]: 64.8 µM | TGI [16]: > 100 µM | TGI [17]: > 100 µM

O=C1Cc2c([nH]c3cc(Br)ccc23)-c2ccccc2N1
TGI [1]: 46.9 µM | TGI [4]: 26 µM | TGI [5]: 88.3 µM | TGI [18]: 69.9 µM | TGI [6]: 37.2 µM | TGI [7]: > 100 µM | TGI [8]: > 100 µM | TGI [9]: > 100 µM | TGI [10]: 48.5 µM | TGI [12]: 52.7 µM | TGI [13]: 73.9 µM | TGI [14]: 89.9 µM | TGI [15]: 37.3 µM | TGI [16]: 58.8 µM | TGI [17]: 58 µM

Cc1nc2c(s/c(=N\N)n2-c2ccccc2)c(=O)n1C
TGI [2]: > 100 µM | TGI [3]: > 100 µM | TGI [5]: > 100 µM | TGI [6]: > 100 µM | TGI [7]: > 100 µM | TGI [9]: > 100 µM | TGI [10]: > 100 µM | TGI [12]: > 100 µM | TGI [13]: > 100 µM | TGI [14]: > 100 µM | TGI [15]: > 100 µM | TGI [16]: > 100 µM | TGI [17]: > 100 µM
